Converted amounts (≈) assume the structure as drawn.
Assays:
[1] = test system: Escherichia coli; test: Antimicrobial activity against Escherichia coli 05-9280TC1 transconjugant expressing IncI1 plasmid-encoded beta lactamase CTX-M-1 by Etest; assay type: functional
[2] = Antimicrobial activity against Salmonella Newport 03-8748 by Etest; assay type: functional, Salmonella enterica subsp. enterica serovar Newport; conditions: Salmonella enterica
[3] = test system: Salmonella typhimurium; test: Antimicrobial activity against Salmonella Typhimurium 08-2211 by Etest; assay type: functional, Salmonella enterica subsp. enterica serovar Typhimurium; conditions: Salmonella enterica
[4] = test system: Escherichia coli; test: Antimicrobial activity against Escherichia coli 08-1537TC1 transconjugant expressing IncI1 plasmid-encoded beta lactamase CTX-M-1 by Etest
[5] = test system: Escherichia coli; test: Antimicrobial activity against Escherichia coli 06CEB6542SALTC1 transconjugant expressing IncI1 plasmid-encoded beta lactamase CTX-M-1 by Etest; assay type: functional
[6] = test system: Escherichia coli; test: Antimicrobial activity against Escherichia coli 08-843TC1 transconjugant expressing IncI1 plasmid-encoded beta lactamase CTX-M-1 by Etest; assay type: functional
[7] = test system: Salmonella typhimurium; test: Antimicrobial activity against Salmonella Typhimurium 06-6550 by Etest; assay type: functional, Salmonella enterica subsp. enterica serovar Typhimurium; conditions: Salmonella enterica
[8] = test system: Escherichia coli; test: Antimicrobial activity against Escherichia coli 08-2712TC1 transconjugant expressing IncI1 plasmid-encoded beta lactamase CTX-M-1 by Etest
[9] = test system: Escherichia coli; test: Antimicrobial activity against Escherichia coli 03-8748TC1 transconjugant expressing IncI1 plasmid-encoded beta lactamase CTX-M-1 by Etest; assay type: functional
[10] = test system: Escherichia coli; test: Antimicrobial activity against Escherichia coli 06-6550TC1 transconjugant expressing IncI1 plasmid-encoded beta lactamase CTX-M-1 by Etest; assay type: functional
[11] = test system: Salmonella; test: Antimicrobial activity against Salmonella Llandoff 06CEB6542SAL by Etest; assay type: functional
[12] = test system: Salmonella typhimurium; test: Antimicrobial activity against Salmonella Typhimurium 05-9280 by Etest; assay type: functional, Salmonella enterica subsp. enterica serovar Typhimurium; conditions: Salmonella enterica
[13] = test system: Salmonella typhimurium; test: Antimicrobial activity against Salmonella Typhimurium 08-1537 by Etest; assay type: functional, Salmonella enterica subsp. enterica serovar Typhimurium; conditions: Salmonella enterica
[14] = test system: Escherichia coli; test: Antimicrobial activity against Escherichia coli 07-819TC1 transconjugant expressing IncI1 plasmid-encoded beta lactamase CTX-M-1 by Etest; assay type: functional
[15] = Antimicrobial activity against Salmonella London 07-819 by Etest; assay type: functional, Salmonella enterica subsp. enterica serovar London; conditions: Salmonella enterica
[16] = test system: Salmonella typhimurium; test: Antimicrobial activity against Salmonella Typhimurium 08-843 by Etest; assay type: functional, Salmonella enterica subsp. enterica serovar Typhimurium; conditions: Salmonella enterica
[17] = Antimicrobial activity against Salmonella 4,5,12:i:- 08-2712 by Etest; assay type: functional, Salmonella enterica subsp. enterica serovar 4,[5],12:i:-; conditions: Salmonella enterica
[18] = test system: Salmonella typhimurium; test: Antimicrobial activity against Salmonella Typhimurium 08-1745 by Etest; assay type: functional, Salmonella enterica subsp. enterica serovar Typhimurium; conditions: Salmonella enterica

SMILES | MIC [1] [mg/L] | MIC [2] [mg/L] | MIC [3] [mg/L] | MIC [4] [mg/L] | MIC [5] [mg/L] | MIC [6] [mg/L] | MIC [7] [mg/L] | MIC [8] [mg/L] | MIC [9] [mg/L] | MIC [10] [mg/L] | MIC [11] [mg/L] | MIC [12] [mg/L] | MIC [13] [mg/L] | MIC [14] [mg/L] | MIC [15] [mg/L] | MIC [16] [mg/L] | MIC [17] [mg/L] | MIC [18] [mg/L]
CC(C)(O/N=C(\C(=O)N[C@@H]1C(=O)N2C(C(=O)[O-])=C(C[n+]3ccccc3)CS[C@H]12)c1csc(N)n1)C(=O)O [CEFTAZIDIME] | > 256 | > 256 | 256 (≈ 468 µM) | 128 (≈ 234 µM) | 8 | 256 (≈ 468 µM) | 256 (≈ 468 µM) | 64 (≈ 117 µM) | 256 (≈ 468 µM) | 64 (≈ 117 µM) | 64 (≈ 117 µM) | > 256 | > 256 | 256 (≈ 468 µM) | > 256 | 256 (≈ 468 µM) | 256 (≈ 468 µM) | > 256
CO/N=C(\C(=O)N[C@@H]1C(=O)N2C(C(=O)O)=C(CSc3nc(=O)c(O)nn3C)CS[C@H]12)c1csc(N)n1 [CEFTRIAXONE] | 32 (≈ 57.7 µM) | 8 (≈ 14.4 µM) | 8 (≈ 14.4 µM) | 8 (≈ 14.4 µM) | 0.5 | 8 (≈ 14.4 µM) | 16 (≈ 28.9 µM) | 8 (≈ 14.4 µM) | 2 (≈ 3.61 µM) | 4 (≈ 7.21 µM) | 4 (≈ 7.21 µM) | 32 (≈ 57.7 µM) | 64 (≈ 115 µM) | 4 (≈ 7.21 µM) | 8 (≈ 14.4 µM) | 16 (≈ 28.9 µM) | 16 (≈ 28.9 µM) | 16 (≈ 28.9 µM)

Source: ChEMBL document CHEMBL1671724, “IncI1 plasmid carrying extended-spectrum-beta-lactamase gene blaCTX-M-1 in Salmonella enterica isolates from poultry and humans in France, 2003 to 2008” (2010)
